Results published in patent US20150044305A1, “[…] NITRIC OXIDE FOR TREATING RESPIRATORY DISEASES” (Advanced Inhalation Therapies (AIT) Ltd., priority 2012, published 2015).

Experiments:
[1] = tested on: methemoglobin; assay: Phase I safety study: methemoglobin (SpMet) by pulse oximeter; type: in vivo, human
Method: (§1) After obtaining informed consent, treatment was initiated within 5 days of enrollment. Subjects were housed in a hospital ward and received 160 ppm gNO for 30 minutes every four hours (Q4 h), five times a day, for five consecutive days by inhalation. Subjects returned for follow-up evaluations 3, 7 and 21 days after the final gNO administration. Subject safety was determined by monitoring vital signs, methemoglobin levels, lung function, blood chemistry, hematology, prothrombin time, inflammatory cytokine/chemokines levels and endothelial activation.
The levels of gNO, NO2, O2 and methemoglobin were monitored during the administration of gNO. The target gas mixture was 160 ppm gNO with a nitrogen dioxide (NO2) level of less than 5 ppm and an oxygen (O2) level ranging from 21% to 25%. Inspiratory NO, NO2 and O2 levels were continuously monitored by sampling from the mouthpiece sample port located about 6 millimeters from the mouth of the subject with an AeroNOx (Pulmonox, AB, Canada) NO, NO2 and O2 electrochemical analyzer. Delivery safety was determined by the number of occasions that NO2 exceeded 5 ppm, gNO exceeding 10% variation and O2 dropping below 20% during gNO administration. A commercially available noninvasive pulse oximeter (Rad 57, Masimo Corporation, USA) was used to measure saturation levels at the periphery of methemoglobin (SpMet).
These parameters were measured continuously during every gNO administration course and for 3.5 hours after the first treatment of the day. Daily serum samples were collected and frozen at −80° C. and the serum […] level was measured using the Griess reagent.

[2] = Phase I safety study: pulmonary function tests; type: in vivo, human
Method: as §1
Subjects underwent full pulmonary function tests (PFT), including lung diffusing capacity (DLCO) by a trained technician utilizing a calibrated pulmonary function system (Jaeger MasterScreen, VIASYS Healthcare, USA) on screening and days 2, 8, 12 and 26. Spirometry test (Microloop by Micro Medical, England) was performed on days 1, 3 and 4. Effect of gNO on lung function and DLCO was determined by changes from baseline, treatment days and follow up days.

[3] = tested on: inflammatory cytokines; assay: Phase I safety study: plasma cytokine levels by cytokine bead array; type: in vivo, human; conditions: vs baseline
Method: as §1
(§2) Hematological assessment included a complete blood count and differentials (hemoglobin, hematocrit, red blood cell count, white blood cell count, white blood cell differential, and platelet count) were obtained in order to monitor blood chemistry, hematology and inflammation measurements. The blood chemistry profile included serum creatinine, and liver function tests such as aspartate aminotransferase (AST) serum glutamic oxaloacetic transaminase (SGOT), alkaline phosphatase, and gamma-glutamyl transferase (GGT). The effect of gNO on coagulation was determined by the prothrombin time (PT) and its derived measures of prothrombin ratio (PR) and international normalized ratio (INR). Heparinized plasma was collected at baseline and on days 1, 2, 4, and 5 of gNO administration, and on follow-up days 3, 7 and 21 and frozen at −80° C. Plasma cytokine levels were assessed using the human inflammation cytokine bead array kit (BD Bioscience, Canada). Plasma levels of angiopoietin Ang-1 and Ang-2 were determined by ELISA (R&D Systems, USA).

[4] = tested on: vascular endothelial activation factors Ang-1 and Ang-2; assay: Phase I safety study: plasma angiopoietin Ang-1 and Ang-2; type: in vivo, human; conditions: vs baseline
Method: as §1, §2

[5] = tested on: S. aureus (ATCC); conditions: 200 ppm gNO, saline suspension; cited from earlier work
[6] = tested on: P. aeruginosa (ATCC); conditions: 200 ppm gNO, saline suspension; cited from earlier work
[7] = tested on: MRSA; conditions: 200 ppm gNO, saline suspension; cited from earlier work
[8] = tested on: Serracia sp.; conditions: 200 ppm gNO, saline suspension; cited from earlier work
[9] = tested on: Klebsiella sp.#1; conditions: 200 ppm gNO, saline suspension; cited from earlier work
[10] = tested on: Klebsiella sp.#2; conditions: 200 ppm gNO, saline suspension; cited from earlier work
[11] = tested on: S. maltophilia; conditions: 200 ppm gNO, saline suspension; cited from earlier work
[12] = tested on: Enterobacter sp.; conditions: 200 ppm gNO, saline suspension; cited from earlier work
[13] = tested on: Acinetobacter sp.; conditions: 200 ppm gNO, saline suspension; cited from earlier work
[14] = tested on: E. Coli; conditions: 200 ppm gNO, saline suspension; cited from earlier work
[15] = tested on: P. aeruginosa; conditions: cited from earlier work
[16] = tested on: five planktonic species of methicillin resistant S. aureous (MRSA); conditions: exposure to 1,600 ppm hours of gNO; cited from earlier work
[17] = tested on: Pseudomonas aeruginosa; conditions: inhaled, intermittent 30 minute exposures, 160 ppm gNO; cited from earlier work
[18] = intermittent gNO inhalation; cited from earlier work
[19] = vs baseline during the course of the study
[20] = levels of gNO greater than 120 ppm

## [N]=O [gNO, nitric oxide]
[1]; 3, 7 and 21 days after the final exposure to gNO
  residual increase in SpMet at follow-up: did not show any residual increase
[1]; 160 ppm gNO 30 minutes, five times a day, five days
  all 930 recorded methemoglobin percent levels (SpMet): < 5%
[1]; 160 ppm gNO, p<0.001
  SpMet increase between pretreatment and post treatment: about 1%
[1]; after 160 ppm gNO administration
  time for SpMet to return to baseline: 3.5 h
[1]; after five daily treatments for five consecutive days
  accumulative or lingering effect on SpMet: no accumulative or lingering effect
[1]; at the end of the 160 ppm gNO treatment
  highest SpMet: 2.5%
[1]; single 30 minutes treatment course, 160 ppm gNO, ten individuals
  average increase of SpMet: 0.9%
[2]; during and after gNO administration
  pulmonary function tests: did not reveal any abnormalities
[2]; vs baseline
  DLCO: did not change from baseline
  forced vital capacity (FVC): did not change from baseline
  residual volume (RV): did not change from baseline
  total lung capacity (TLC): did not change from baseline
[2]; [19]
  FEV1: did not differ from baseline
  maximum mid-expiratory flow (MMEF): did not differ from baseline
[3]
  cytokine level of IL-1b: unaffected
  cytokine level of IL-6: unaffected
  cytokine level of IL-8: unaffected
  cytokine level of IL-10: unaffected
  cytokine level of IL-12p70: unaffected
  cytokine level of TNF: unaffected
[4]
  Ang-1 plasma level: unaffected
  Ang-2/Ang-1 ratio: not affected
  Ang-2 plasma level: not affected
[5]
  LD100: 4 h
  Latent Period: 3 h
  −2.5 Log10 (hours): 3.3 hours
[6]
  LD100: 3 h
  Latent Period: 1 h
  −2.5 Log10 (hours): 2.1 hours
[7]
  LD100: 5 h
  Latent Period: 3 h
  −2.5 Log10 (hours): 4.2 hours
[8]
  LD100: 6 h
  Latent Period: 4 h
  −2.5 Log10 (hours): 4.9 hours
[9]
  LD100: 6 h
  Latent Period: 3 h
  −2.5 Log10 (hours): 3.5 hours
[10]
  LD100: 5 h
  Latent Period: 2 h
  −2.5 Log10 (hours): 4.1 hours
[11]
  LD100: 4 h
  Latent Period: 2 h
  −2.5 Log10 (hours): 2.8 hours
[12]
  LD100: 6 h
  Latent Period: 4 h
  −2.5 Log10 (hours): 5.3 hours
[13]
  LD100: 6 h
  Latent Period: 4 h
  −2.5 Log10 (hours): 5 hours
[14]
  LD100: 5 h
  Latent Period: 3 h
  −2.5 Log10 (hours): 4.2 hours
[15]; [20]
  reduction of colony formation: greater than 90%
  time required to achieve greater than 90% reduction of colony formation: 8 to 12 h
[15]; solid media, increasing gNO concentration up to 160 ppm, vs medical air
  survival (downward bactericidal trend): 5-10%
[16]
  population of planktonic MRSA strains: A reduction in the population of all five MRSA planktonic strains was observed
[17]
  pulmonary bioburden and leukocyte infiltration: effective to reduce the pulmonary bioburden and leukocyte infiltration
[18]
  clinical symptoms of bovine respiratory disease: shown to decrease the clinical symptoms
